Measurements as given in article PMC7917093, “Multiomics-based dissection of citrus flavonoid metabolism using a Citrus reticulata × Poncirus trifoliata population” (Horticulture Research, 2021).

Key:
[1] = tested on: T1, CitF3H (C. reticulata allele); assay: LC-MS product assay, Michaelis-Menten fit; assay type: biochemical, Citrus reticulata; settings: 0-1000 μM naringenin; 2-oxoglutarate 10 mM, FeSO4 0.25 mM, ascorbate 10 mM; Tris-HCl pH 8.5; 35 °C
T1 construct: gene F3H

[2] = tested on: T2, CitF3H (P. trifoliata allele); assay: LC-MS product assay, Michaelis-Menten fit; assay type: biochemical, Citrus trifoliata; settings: 0-1000 μM naringenin; 2-oxoglutarate 10 mM, FeSO4 0.25 mM, ascorbate 10 mM; Tris-HCl pH 8.5; 35 °C
T2 construct: gene F3H; natural allele with five amino acid differences and one indel versus C. reticulata

O=C1C[C@@H](c2ccc(O)cc2)Oc2cc(O)cc(O)c21 [naringenin]
Km [1]: 121 µM | Km [2]: 7.61 µM
